Read-outs that look alike come from different tables or passages of the source.
How the values were obtained:
CCRF-CBM leukemia = assay: Cytotoxicity, CCRF-CBM; format: cell-based; conditions: read-out: Log10 GI50, CCRF-CBM (converted)
From the text: (§1) A total of 55 cell lines from the leukemia, non-small cell lung cancer, small cell lung cancer, colon cancer, CNS cancer, melanoma, ovarian cancer, and renal cancer panels were examined.

HCT-116 colon cancer = assay: Cytotoxicity, HCT-116; format: cell-based; conditions: Homo sapiens, read-out: Log10 GI50, HCT-116 (converted)
From the text: as §1

COLO 205 colon cancer = assay: Cytotoxicity, COLO 205
[1] = system: DMS114 small cell lung cancer; assay: Cytotoxicity, DMS114; format: cell-based; conditions: Homo sapiens, DMS-114; read-out: Log10 GI50, DMS114 (converted)
From the text: as §1

OVCAR-5 ovarian cancer = assay: Cytotoxicity, OVCAR-5; format: cell-based; conditions: Homo sapiens, read-out: Log10 GI50, OVCAR-5 (converted)
From the text: as §1

SK-MEL-2 melanoma = assay: Cytotoxicity, SK-MEL-2; format: cell-based; conditions: Homo sapiens, read-out: Log10 GI50, SK-MEL-2 (converted)
From the text: as §1

UO-31 renal cancer = assay: Cytotoxicity, UO-31; format: cell-based; conditions: Homo sapiens, read-out: Log10 GI50, UO-31 (converted)
From the text: as §1

[2] = system: HOP-62 non-small cell lung cancer; assay: Cytotoxicity, HOP-62; format: cell-based; conditions: Homo sapiens, read-out: Log10 GI50, HOP-62 (converted)
From the text: as §1

UACC-257 melanoma = assay: Cytotoxicity, UACC-257; format: cell-based; conditions: Homo sapiens, read-out: Log10 GI50, UACC-257 (converted)
From the text: as §1

[3] = system: A549/ATCC non-small cell lung cancer; assay: Cytotoxicity, A549/ATCC; format: cell-based; conditions: Homo sapiens, read-out: Log10 GI50, A549/ATCC (converted)
From the text: as §1

CAKI-1 renal cancer = assay: Cytotoxicity, CAKI-1; conditions: read-out: cytotoxicity GI50, CAKI-1, 50% growth inhibition, average of two determinations, 8640 min, Hydrochloride
[4] = system: HOP-18 non-small cell lung cancer; assay: Cytotoxicity, HOP-18; format: cell-based; conditions: Homo sapiens, read-out: Log10 GI50, HOP-18 (converted)
From the text: as §1

SNB-19 CNS cancer = assay: Cytotoxicity, SNB-19; format: cell-based; conditions: Homo sapiens, read-out: Log10 GI50, SNB-19 (converted)
From the text: as §1

RPMI-8226 leukemia = assay: Cytotoxicity, RPMI-8226; format: cell-based; conditions: Homo sapiens, read-out: Log10 GI50, RPMI-8226 (converted)
From the text: as §1

HL-60 (TB) leukemia = assay: Cytotoxicity, HL-60(TB) leukemia; conditions: read-out: cytotoxicity GI50, HL-60(TB); 50% growth inhibition; average of two determinations; 8640 min; Hydrochloride, 8640 min
SF-295 CNS cancer = assay: Cytotoxicity, SF-295
[5] = system: LXFL 529 non-small cell lung cancer; assay: Cytotoxicity, LXFL 529; format: cell-based; conditions: Homo sapiens, read-out: Log10 GI50, LXFL 529 (converted)
From the text: as §1

RXF-393 renal cancer = assay: Cytotoxicity, RXF-393; format: cell-based; conditions: Homo sapiens, read-out: Log10 GI50, RXF-393 (converted)
From the text: as §1

IGROVI ovarian cancer = assay: Cytotoxicity, IGROVI; format: cell-based; conditions: read-out: Log10 GI50, IGROVI (converted)
From the text: as §1

M19-MEL melanoma = assay: Cytotoxicity, M19-MEL; format: cell-based; conditions: Homo sapiens, read-out: Log10 GI50, M19-MEL (converted)
From the text: as §1

786-0 renal cancer = assay: Cytotoxicity, 786-0; format: cell-based; conditions: Homo sapiens, read-out: Log10 GI50, 786-0 (converted)
From the text: as §1

OVCAR-8 ovarian cancer = assay: Cytotoxicity, OVCAR-8; format: cell-based; conditions: Homo sapiens, read-out: Log10 GI50, OVCAR-8 (converted)
From the text: as §1

K-562 leukemia = assay: Cytotoxicity, K-562; format: cell-based
From the text: as §1

DLD-1 colon cancer = assay: Cytotoxicity, DLD-1; format: cell-based; conditions: Homo sapiens, read-out: Log10 GI50, DLD-1 (converted)
From the text: as §1

SN12C renal cancer = assay: Cytotoxicity, SN12C; format: cell-based; conditions: Homo sapiens, read-out: Log10 GI50, SN12C (converted)
From the text: as §1

[6] = system: NCI-H322M non-small cell lung cancer; assay: Cytotoxicity, NCI-H322M; format: cell-based; conditions: Homo sapiens, read-out: Log10 GI50, NCI-H322M (converted)
From the text: as §1

SNB-78 CNS cancer = assay: Cytotoxicity, SNB-78; format: cell-based; conditions: Homo sapiens, read-out: Log10 GI50, SNB-78 (converted)
From the text: as §1

HCT-15 colon cancer = assay: Cytotoxicity, HCT-15; format: cell-based; conditions: Homo sapiens, read-out: Log10 GI50, HCT-15 (converted)
From the text: as §1

[7] = system: NCI-H460 non-small cell lung cancer; assay: Cytotoxicity, NCI-H460; format: cell-based; conditions: Homo sapiens, read-out: Log10 GI50, NCI-H460 (converted)
From the text: as §1

HT29 colon cancer = assay: Cytotoxicity, HT29 (Table XI panel); format: cell-based; conditions: Homo sapiens, HT-29; read-out: Log10 GI50, HT29 (converted)
From the text: as §1

tubulin = assay: Inhibition of tubulin polymerization (turbidimetry); format: biochemical, bovine; conditions: Hydrochloride
TK-10 renal cancer = assay: Cytotoxicity, TK-10; format: cell-based; conditions: Homo sapiens, read-out: Log10 GI50, TK-10 (converted)
From the text: as §1

SK-OV-3 ovarian cancer = assay: Cytotoxicity, SK-OV-3; format: cell-based; conditions: Homo sapiens, read-out: Log10 GI50, SK-OV-3 (converted)
From the text: as §1

`COc1cc(CNc2ccc(C)cc2)cc(OC)c1OC.Cl` [110a, 4-Methyl-N-(3,4,5-trimethoxybenzyl)aniline Hydrochloride] was tested, and the GI50 (CCRF-CBM leukemia) was 0.282 µM, the GI50 (HCT-116 colon cancer) was 0.575 µM and the “Log10 GI50, COLO 205” value (COLO 205 colon cancer) was -6.67. The GI50 (COLO 205 colon cancer; read-out: cytotoxicity GI50, COLO 205, 50% growth inhibition, average of two determinations, 8640 min, Hydrochloride, 8640 min) was 0.219 µM, the GI50 [1] was 0.427 µM and the GI50 (OVCAR-5 ovarian cancer) was 1.35 µM. For the same compound, the GI50 (SK-MEL-2 melanoma) was 0.132 µM, the GI50 (UO-31 renal cancer) was 0.832 µM and the GI50 [2] was 0.282 µM. For the same compound, the GI50 (UACC-257 melanoma) was greater than 100 µM, the GI50 [3] was 0.513 µM and the GI50 (CAKI-1 renal cancer) was 0.162 µM. The GI50 [4] was 37.2 µM, the GI50 (SNB-19 CNS cancer) was 0.295 µM and the GI50 (RPMI-8226 leukemia) was 0.437 µM. For the same compound, the GI50 (HL-60 (TB) leukemia) was 0.0722 µM, the “Log10 GI50, SF-295” value (SF-295 CNS cancer) was -6.49 and the GI50 (SF-295 CNS cancer; read-out: cytotoxicity GI50, SF-295, 50% growth inhibition, average of two determinations, 8640 min, Hydrochloride, 8640 min) was 0.233 µM. The GI50 [5] was 0.631 µM, the GI50 (RXF-393 renal cancer) was 0.112 µM and the GI50 (IGROVI ovarian cancer) was 0.708 µM. It also gave a GI50 (M19-MEL melanoma) of 0.331 µM, a GI50 (786-0 renal cancer) of 0.324 µM and a GI50 (OVCAR-8 ovarian cancer) of 0.759 µM. For the same compound, the GI50 (K-562 leukemia; Homo sapiens, K562, read-out: Log10 GI50, K-562 (converted)) was less than 0.1 µM, the “Log10 GI50, K-562” value (K-562 leukemia; Hydrochloride) was -7.00 and the GI50 (DLD-1 colon cancer) was 0.575 µM. It also gave a GI50 (SN12C renal cancer) of 0.851 µM, a GI50 [6] of 0.501 µM and a GI50 (SNB-78 CNS cancer) of 1.1 µM. It also gave a GI50 (HCT-15 colon cancer) of 0.245 µM, a GI50 [7] of 0.214 µM and a GI50 (HT29 colon cancer) of 0.347 µM. The IC50 (tubulin; Table X, different glutamate preparation (1M monosodium glutamate and GTP), read-out: inhibn of tubulin polymn IC50 (±SD)) was 3.5 µM, the IC50 (tubulin; benzylanilines, Table X series, read-out: tubulin polymerization IC50) was 3.5 µM and the GI50 (TK-10 renal cancer) was greater than 100 µM. The GI50 (SK-OV-3 ovarian cancer) was 0.269 µM.

— patent US5430062A, “Stilbene derivatives as anticancer agents” (priority 1993, dated 1995)
